Measurements published in patent US20210349077A1, “Method of quantifying induced membrane permeability and of screening compounds able to prevent said permeability” (Zarbio, priority 2020, published 2021).

Columns and labels:
[1] = Flow cytometric calcium permeabilization of phosphatidylserine liposomes (DiD membrane probe, Fluo-3 calcium probe); assay type: biochemical; settings: for channel formation / permeabilization of membranes to calcium: summary statement, FIG. 10 and 12; for permeability of liposomes to calcium: peptide stock in DMSO, final concentration 10 μM
Excerpt: (§1) Unilamellar liposomes are created with Fluo-3 membrane-impermeant fluorescent dye sensitive to the concentration of calcium (an example of ion sensitive probe, ISP, at the FIG. 2). The buffer for the created liposomes is calcium-free, and can contain calcium-chelating agents, such as EGTA or EDTA. Both calcium-free and calcium-bound Fluo-3 effectively absorb light with wavelength of 488 nm (one of typical lasers used in flow cytometers, blue light). […] Measuring the fluorescence at 520 nm allows to distinguish the liposomes which contain free calcium and those which are impermeant to calcium.
(§2) To identify liposomes in the flow, lipids can be supplemented with a lipophilic dye such as 1,1′-dioctadecyl-3,3,3′,3′-tetramethylindodicarbocyanine (DiD), which serves as membrane probe (MP at the FIG. 2). […] However, after ion channels are formed in the particular liposome, the electrolytes are equilibrated between inside and outside of the liposome. Therefore, due to the presence of calcium outside, the liposomes with the channels will have high free calcium, so Fluo-3 will have intensive fluorescence.
(§3) In the flow cytometer, the appearance of channels is visible as increasing proportion of calcium-loaded liposomes compared with calcium-free liposomes. When every liposome becomes permeant to calcium, all liposomes will be presented as loaded with calcium. This condition is used for normalization and can be achieved in control experiments by the addition of calcium ionophore such as ionomycin.
Liposomes (400 nm) were made of phosphatidylserine with DiD and were extruded in the buffer without (A-C) or with (D-I) 1 mM Fluo-3. […] Liposomes with membrane but without calcium-sensitive probe in the presence of calcium. • D, E, F (Second row). Liposomes with both membrane and calcium-sensitive probe in the presence of calcium. • G, H, I (Third row). Liposomes with both membrane and calcium-sensitive probe in the absence of calcium. • A, D, G (First column). Liposomes only. • B, E, H (Second column). Liposomes with added 5 μM Aβ25-35. • C, F, I (Third column). Liposomes with added 5 μM Aβ25-35 followed by ionomycin.
Liposomes made of phosphatidylserine and contained both DiD and Fluo-3. In a calcium-containing medium, membranes are not permeant to calcium, so there is a minimal number of liposomes with increased levels of green fluorescence (A). […] Increasing concentration of amyloid peptide increases the number of permeant liposomes (C, D).
This figure summarizes data from experiments, described at the FIG. 10. Liposomes made of phosphatidylserine and contained both DiD and Fluo-3 were treated by various concentrations of Aβ25-35. For the treatment, the same stock solution of peptide in distilled water was added to the suspension of liposomes in a calcium-containing medium. The gate to count the number of permeabilized vesicles is shown at the density plot (left graph).
Phosphatidylserine liposomes were prepared to contain both DiD and Fluo-3 as described for previous figures. Liposomes were tested to be permeabilized by Aβ25-35. • A. Control PS liposomes with calcium (60 μM). Limited number of events is registered in the area corresponding to permeabilized vesicles. • B. Effect of Aβ1-42 (8 μM). […] Effect of ionomycin (50 nM, positive control).
In this experiment, stock solution of peptides was prepared in DMSO to extend the testing to the peptide which are not soluble in water-based excipients. […] There is no difference between the effects of the peptide that was dissolved initially in DMSO (“Lip+Pep/DMSO”) and water (not shown here). • C.
The permeabilization to calcium ions will be described first as an example. To detect calcium transmembrane transfer, calcium-sensitive probes are used, such as Fluo-3 or Fluo-4 which dramatically increase their fluorescence upon binding calcium. Liposomes are formed in a calcium-free medium containing calcium-sensitive probe. […]

[2] = Flow cytometric fluorescence test of phosphatidylcholine liposomes (DiD, Fluo-3); assay type: biochemical
Excerpt: as §1, §2, §3
Liposomes (400 nm) were made of phosphatidylcholine with DiD and were extruded in the buffer containing 1 mM Fluo-3 (A-H) or without Fluo-3 (I, J).
The effect of Aβ25-35 was the same in calcium-free medium with EGTA (F,G).

## C[C@H](CCC(=O)O)C[C@H](C)C[C@H](C)C(=O)/C=C(\O)[C@H](C)C[C@H](C)C/C=C/[C@@H](C)[C@@H](O)[C@@H](C)[C@@H](O)C[C@@H]1CC[C@@](C)([C@H]2CC[C@@](C)([C@@H](C)O)O2)O1 [ionomycin]
[1]; 50 nM, calcium 60 μM
  permeabilization of liposomes (positive control): permeabilizes all liposomes
[1]; DiD-only vesicles and in the absence of calcium
  effect of ionomycin added following 5 μM Aβ25-35: did not produce any effect
[1]; liposomes with Fluo-3, calcium present
  Fluo-3 signal after ionomycin added following 5 μM Aβ25-35: did not further increase the Fluo-3 signal from vesicles with low DiD signal but additionally shifted upwards the part of the distribution with high DiD signal
[2]; liposomes with 1 mM Fluo-3, calcium present
  fluorescence after ionophore addition: significantly increased fluorescence

## Aβ1-42: full-length amyloid peptide
[1]; 8 μM peptide, calcium 60 μM, compared with control
  number of events in the area corresponding to permeabilized vesicles: does not exceed same number observed in control experiment
[1]
  channel formation / permeabilization of membranes to calcium: does not create channels permeabilizing membranes to calcium

## Aβ25-35: short fragment of beta-amyloid peptide that forms membrane channels (GSNKGAIIGLM; Amyloid-beta protein 42; UniProt P05067 696-706, looked up, fragment)
[1]
  time for effects of the peptide to develop after addition to liposomes: within the first minute
  permeability of liposomes to calcium: permeabilized liposomes
  channel formation / permeabilization of membranes to calcium: efficiently permeabilize multiple liposomes
[1]; 2 μM peptide, calcium-containing medium
  liposomes made permeant to calcium: makes some of liposomes permeant to calcium
[1]; 5 μM peptide, 400 nm liposomes with 1 mM Fluo-3, extravesicular calcium present
  green (Fluo-3) signal from vesicles: increased green signal from vesicles only in the presence of both Fluo-3 and calcium
[1]; 5 μM peptide, DiD-only liposomes or calcium-free buffer (EGTA)
  green signal from vesicles: did not have effect
[1]; incubation with the peptide for up to one hour
  change in number of permeabilized liposomes on prolonged incubation: does not change the number of permeabilized liposomes
[1]; phosphatidylserine liposomes, various conditions (FIG. 11)
  liposomes of total number that become permeant to calcium: up to 10%
[1]; various concentrations, stock in distilled water, calcium-containing medium
  dependence of number of permeabilized liposomes on amount of added peptide: linearly dependent on the amount of added peptide
[2]; calcium-free medium with EGTA
  effect on green signal compared with calcium-containing medium: the same
[2]; concentrations above 10 μM (20 μM, 50 μM), 400 nm liposomes with 1 mM Fluo-3, calcium present
  green signal from vesicles: slightly but reproducibly increased green signal from vesicles
[2]; liposomes extruded without Fluo-3
  shift of green fluorescence distribution: still shifted the distribution upward

## Aβ31-35: amyloid-beta peptide fragment tested at 10 μM from DMSO stock (IIGLM; Amyloid-beta protein 42; UniProt P05067 702-706, looked up, fragment)
[1]
  permeability of liposomes to calcium: did not affect the permeability of liposomes
